Test results: article PMC6100512, “In-Vitro Activity of Silybin and Related Flavonolignans against Leishmania infantum and L. donovani” (Molecules : A Journal of Synthetic Chemistry and Natural …, 2018)

How the values were obtained:
[1] = tested on: Li UCM9 promastigotes; test: Multiplication of Li promastigotes in vitro (CellTiter-Glo, 24 h); format: cell-based, Leishmania infantum; conditions: Leishmania infantum; for inhibition of growth at 120 µM: compared to untreated cultures, mean ± SD, read-out: Reduction (%) of multiplication, L infantum promastigotes; for Emax: exploratory screening, 0.94 µM up to 120 µM, read-out: Maximal effect (inhibition of growth of control cultures) on Li promastigotes
Protocol: (§1) Growth was estimated by the addition of CellTiter-Glo® (Promega, Madison, WI, USA) (1:1) in 96-well microtiter white plates (Costar, Corning). After 10 min incubation (light protected, room temperature), luminescence was determined with FLUOstar Omega (BMG Labtech) reader. Sensitivity of Ld was similarly performed with promastigotes exposed to 120 μM. Control cultures (medium, untreated promastigotes, promastigotes treated with 0.2 μM AmB) were included. Experiment was carried out in triplicate and results expressed as % of inhibition of untreated control. Approximate IC50 values of the flavonolignans showing the highest inhibitory activity against Li mid-log-phase promastigotes were determined using dose-response curves. […] The compound with the highest activity, DhiS-A, was assayed against Ld promastigotes using the latter dilution series and the same culture conditions as above. For comparative purposes, mid-log promastigotes of Li and Ld were exposed to established anti-Leishmania agents: AmB (0.0078 μ[…] and 1.0 μM); […]

[2] = tested on: Ld promastigotes; test: Multiplication of Ld promastigotes in vitro (CellTiter-Glo, 24 h); format: cell-based, L. donovani; conditions: Leishmania donovani; for inhibition of growth at 120 µM: compared to untreated cultures, mean ± SD, read-out: Reduction (%) of multiplication, L. donovani promastigotes
Protocol: as §1

[3] = tested on: intracellular amastigotes of Li BCN150; test: Activity against intracellular amastigotes ex vivo in mouse peritoneal Mφ; format: cell-based, Leishmania infantum; conditions: 24 h
Protocol: Antiproliferative activity of flavonolignans against intracellular amastigotes was determined ex vivo using mouse peritoneal Mφ. Infections were carried out following the method and modifications described by us. Briefly, Mφ were seeded onto 8-well cell culture slides (SLP, Lifesciences Co., Pocheon, Korea) in a final volume of 400 µL (2.5 × 10^4 Mφ/well). Plates were incubated overnight at 37 °C under humidified 5% CO2/95% air atmosphere to facilitate adherence. Stationary-phase promastigotes of Ld and Li were centrifuged (370× g, 10 min) without break in a Ficoll (Sigma, Saint Louis, MO, USA) gradient (0%, 10% in Medium 199 and 30% in sterile phosphate-buffered saline). Metacyclic promastigotes, located in the 10–30% Ficoll interphase, were recovered, washed and opsonized in 15% normal mouse serum in 1:1 solution of RPMI and HBSS medium (Gibco, Life Technologies, Paisley, UK), 0.15 mM CaCl2 and 1 mM MgCl2 at 37 °C, 5% CO2 atmosphere for 30 min. Purified metacyclic promastigotes were added to the Mφ cultures using a ratio 4:1 (promastigotes:Mφ) for Li and 10:1 for Ld. Plates were incubated at 33 °C overnight as above. Noninternalized promastigotes were eliminated by repeated washing with fresh medium. Treatments (10 µM) were added to the cultures and kept for 24 h. Slides were methanol-fixed and stained with May–Grünwald Giemsa (Merck) to determine the % of infection and the number of amastigotes/100 Mφ under microscope. Cultures untreated, treated with 0.05% DMSO and treated with 0.1 µM AmB were included as controls. Experiments were done in triplicate and the activity was expressed as % of inhibition compared to untreated cultures.

[4] = tested on: Li promastigotes; test: Drug combination with DhiS-A, Chou-Talalay method (CalcuSyn); format: cell-based, Leishmania infantum; conditions: for Dose Required of Dn in combination with DhiS-A: computer-simulated; for DRI of Dn in combination with DhiS-A: fold dose reduction vs single agent
Protocol: Fixed-combination ratios of drugs were based on the IC50 values determined for the individual molecules. Mid-log-phase promastigotes of Li were exposed for 24 h at constant ratios of 0.01:15 (AmB:DhiS-A), 1:1 (Sb^III:DhiS-A) and 5:1 (PMM:DhiS-A). Dose–response curves of the combinations were analyzed with the Chou–Talalay method, based on the theorem of combination index (CI)-isobologram and CalcuSyn software. This method allows the evaluation of the type of interaction between two molecules according to mass action law. Results can be used to determine quantitatively the synergy (CI < 1), additive effect (CI = 1) or antagonism (CI > 1) of combinations. Moreover, the program allows the calculation of the drug reduction index (DRI): dose reduction in drug combinations to reach a given inhibition compared to the activity of the individual drugs.

[5] = tested on: BALB/c mouse peritoneal macrophages, Mφ; test: Toxicity of flavonolignans for macrophages (CellTiter-Glo); format: cell-based; conditions: Peritoneal macrophage, 24 h, 28.125 to 900 µM, approximate
Protocol: Toxicity of flavonolignans for mammalian cells was determined using mouse peritoneal Mφ. Cells obtained were counted and seeded onto 96-well cultures plates (Costar, Corning) at a final concentration of 5 × 10^4 Mφ/well (100 µL/well). Plates were incubated overnight at 37 °C and humidified 5% CO2/95% air to facilitate adherence. Cells were cultured as above for 24 h with different concentrations of the flavonolignans (28.125 µM, 56.25 µM, 112.5 µM, 225 µM, 450 µM and 900 µM). After incubation, cell viability was determined with CellTiter-Glo® as previously described. Untreated and 300 µM AmB-treated control wells were included. Experiments were done in triplicate and approximate IC50 determined.

Structure (SMILES): C[C@@H]1[C@H](O)[C@@H](C)/C=C/C=C/C=C/C=C/C=C/C=C/C=C/[C@H](O[C@@H]2O[C@H](C)[C@@H](O)[C@H](N)[C@@H]2O)C[C@@H]2O[C@](O)(C[C@@H](O)C[C@@H](O)[C@H](O)CC[C@@H](O)C[C@@H](O)CC(=O)O[C@H]1C)C[C@H](O)[C@H]2C(=O)O [AmB, amphotericin B]
- IC50 ([1]; approximate, dose-response curve, 24 h): ~0.06 µM
- IC50 ([2]; approximate, dose-response curve): ~0.06 µM
- Reduction of the number of Mφ infected, Li ([3]; 0.1 µM): 50.0 ± 6.93%
- Reduction of the number of amastigotes/100 Mφ, Li ([3]; 0.1 µM): 57.63 ± 11.47%
- CI value of combination Dn + DhiS-A ([4]; ED10 (10% growth inhibition), constant ratio Dn:DhiS-A (AmB 0.01:15)): 1.49 (antagonism)
- Dose Required of Dn in combination with DhiS-A ([4]; ED10): 0.023 µM
- DRI of Dn in combination with DhiS-A ([4]; ED10): 2.85
- CI value of combination Dn + DhiS-A ([4]; ED25 (25% growth inhibition), constant ratio Dn:DhiS-A (AmB 0.01:15)): 1.24 (moderate antagonism)
- Dose Required of Dn in combination with DhiS-A ([4]; ED25): 0.030 µM
- DRI of Dn in combination with DhiS-A ([4]; ED25): 2.74
- CI value of combination Dn + DhiS-A ([4]; ED50 (50% growth inhibition), constant ratio Dn:DhiS-A (AmB 0.01:15; Sb^III 1:1; PMM 5:1)): 1.06 (additive effect)
- Dose Required of Dn in combination with DhiS-A ([4]; ED50): 0.038 µM
- DRI of Dn in combination with DhiS-A ([4]; ED50): 2.64
- CI value of combination Dn + DhiS-A ([4]; ED75 (75% growth inhibition), constant ratio Dn:DhiS-A (AmB 0.01:15; Sb^III 1:1; PMM 5:1)): 0.92 (additive effect)
- Dose Required of Dn in combination with DhiS-A ([4]; ED75): 0.048 µM
- DRI of Dn in combination with DhiS-A ([4]; ED75): 2.54
- CI value of combination Dn + DhiS-A ([4]; ED90 (90% growth inhibition), constant ratio Dn:DhiS-A (AmB 0.01:15; Sb^III 1:1; PMM 5:1)): 0.81 (moderate synergism)
- Dose Required of Dn in combination with DhiS-A ([4]; ED90): 0.062 µM
- DRI of Dn in combination with DhiS-A ([4]; ED90): 2.39
- Dose Required of Dn in combination with DhiS-A ([4]; ED95): 0.074 µM
- Type of interaction with DhiS-A ([4]; Li promastigotes, fixed ratios AmB 0.01:15, Sb^III 1:1, PMM 5:1 (Dn:DhiS-A)): moderate synergism

Structure (SMILES): COc1cc([C@H]2Oc3cc(-c4oc5cc(O)cc(O)c5c(=O)c4O)ccc3O[C@@H]2CO)ccc1O [Dehydrosilybin A, dehydrosilybin A]
- inhibition of growth at 120 µM ([1]; 24 h): 10.2 ± 6.97%
- IC50 [5]: ~60 µM
- inhibition of growth at 120 µM [2]: -38.7 ± 5.41%
- Reduction of Mφ infection, Li ([3]; 10 µM): 40.13 ± 12.6%
- Reduction of intracellular amastigotes, Li ([3]; 10 µM): over 50%

Structure (SMILES): COc1cc(C2Oc3cc(-c4oc5cc(O)cc(O)c5c(=O)c4O)ccc3OC2CO)ccc1O (stereo not shown) [Dehydrosilybin AB, dehydrosilybin AB]
- inhibition of growth at 120 µM ([1]; 24 h): 17.9 ± 4.33%
- Emax [1]: < 50%
- IC50 [5]: ~37 µM
- inhibition of growth at 120 µM [2]: 9.01 ± 3.59%

Structure (SMILES): COc1cc([C@@H]2Oc3cc(-c4oc5cc(O)cc(O)c5c(=O)c4O)ccc3O[C@H]2CO)ccc1O [Dehydrosilybin B, dehydrosilybin B]
- inhibition of growth at 120 µM ([1]; 24 h): 20.9 ± 11.6%
- IC50 [5]: ~41.2 µM
- inhibition of growth at 120 µM [2]: 38.1 ± 2.9%

Structure (SMILES): COc1cc([C@@H]2Oc3c(O)cc(-c4oc5cc(O)cc(O)c5c(=O)c4O)cc3[C@H]2CO)ccc1O [Dehydrosilychristin A, dehydrosilychristin A]
- inhibition of growth at 120 µM ([1]; 24 h): 30.6 ± 3.33%
- Emax [1]: < 50%
- IC50 [5]: ~40 µM
- inhibition of growth at 120 µM [2]: 46.7 ± 1.24%

Structure (SMILES): COc1cc(C2C3C=C(c4oc5cc(O)cc(O)c5c(=O)c4O)C4C2COC4(O)C3=O)ccc1O (stereo not shown) [Dehydrosilydianin, dehydrosilydianin]
- inhibition of growth at 120 µM ([1]; 24 h): 42.2 ± 5.42%
- Emax [1]: < 50%
- inhibition of growth at 120 µM [2]: 29.8 ± 2.17%
